Read-outs that look alike come from different tables or passages of the source.
Tested on: NL-RLuc virus
Test: Inhibition of HIV replication (NL-RLuc luciferase reporter virus in MT-2 cells)
Assay type: cell-based
Conditions: Human immunodeficiency virus 1, MT2, 120 h
Summary of the method: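 MT-2 cells were infected with NL4-3-derived virus carrying Renilla luciferase in place of part of nef, with serial compound dilutions, in RPMI 1640 with 10% FBS. After 5 days, virus growth was read as luciferase signal. EC50 came from the median effect equation over at least 2 experiments.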

Row | Structure (SMILES) | EC50 (read-out: Activity) [µM] | EC50 (read-out: EC50 μM) [µM]
1 | Cc1nc(C)c([C@H](OC(C)(C)C)C(=O)O)c(N2CCC3(CCCCCC3)C2)c1-c1ccc(C(=O)NCc2ccccc2)cc1 [Example 65, (S)-2-(5-(4-(Benzylcarbamoyl)phenyl)-2,6-dimethyl-4-(2-azaspiro[4.6]undecan-2-yl)pyridin-3-yl)-2-(tert-butoxy) acetic acid] | < 0.1 | –
2 | Cc1nc(C)c([C@H](OC(C)(C)C)C(=O)O)c(N2CCC3(CCCO3)CC2)c1-c1ccc(OCCc2ccc(F)cc2)cc1 [Example 66, (S)-2-(tert-Butoxy)-2-(5-(4-(4-fluorophenethoxy)phenyl)-2,6-dimethyl-4-(1-oxa-8-azaspiro[4.5]decan-8-yl)pyridin-3-yl)acetic acid] | < 0.1 | –
3 | Cc1nc(C)c([C@H](OC(C)(C)C)C(=O)O)c(N2CCC3(CCOC3)CC2)c1-c1ccc(OCCc2ccc(F)cc2)cc1 [Example 67, (S)-2-(tert-Butoxy)-2-(5-(4-(4-fluorophenethoxy)phenyl)-2,6-dimethyl-4-(2-oxa-8-azaspiro[4.5]decan-8-yl)pyridin-3-yl)acetic acid] | < 0.1 | –
4 | Cc1nc(C)c([C@H](OC(C)(C)C)C(=O)O)c(N2CCC3(CCNC3)CC2)c1-c1ccc(OCCc2ccc(F)cc2)cc1 [Example 68, (S)-2-(tert-Butoxy)-2-(5-(4-(4-fluorophenethoxy)phenyl)-2,6-dimethyl-4-(2,8-diazaspiro[4.5]decan-8-yl)pyridin-3-yl)acetic acid] | 0.1 to 1 | 0.731
5 | Cc1nc(C)c([C@H](OC(C)(C)C)C(=O)O)c(N2CCC3(CCNC3)CC2)c1-c1ccc(C(=O)NCc2ccccc2)cc1 [Example 69, (S)-2-(5-(4-(Benzylcarbamoyl)phenyl)-2,6-dimethyl-4-(2,8-diazaspiro[4.5]decan-8-yl)pyridin-3-yl)-2-(tert-butoxy)acetic acid] | > 1 | 9.66
6 | Cc1nc(C)c([C@H](OC(C)(C)C)C(=O)O)c(N2CCC3(CC2)CC3(F)F)c1-c1ccc(OCCc2ccc(F)cc2)cc1 [Example 70, (S)-2-(tert-Butoxy)-2-(4-(1,1-difluoro-6-azaspiro[2.5]octan-6-yl)-5-(4-(4-fluorophenethoxy)phenyl)-2,6-dimethylpyridin-3-yl)acetic acid] | < 0.1 | –
7 | Cc1nc(C)c([C@H](OC(C)(C)C)C(=O)O)c(N2CCC3(CC2)CC3(F)F)c1-c1ccc(C(=O)NCc2ccccc2)cc1 [Example 71, (S)-2-(5-(4-(Benzylcarbamoyl)phenyl)-4-(1,1-difluoro-6-azaspiro[2.5]octan-6-yl)-2,6-dimethylpyridin-3-yl)-2-(tert-butoxy)acetic acid] | < 0.1 | 0.018
